# Test results reported in patent US10537558B2 (Bantam Pharmaceutical, LLC, priority 2015, dated 2020).
# Test system: BJAB cells
# Assay: BJAB cell proliferation (Cell Titer Glo)
# Assay type: cell-based
# Details: Homo sapiens, read-out: EC50
# Method: Cells were seeded in white Corning Costar 96-well assay plates at 2500 cells/well in 50 μL of medium. Serial dilutions of test compounds were made in cell culture medium/FBS+0.2% DMSO, and transferred to assay plates in a volume of 50 μL (DMSO at 0.1% final). Plates were maintained at 37° C. for approximately 72 hours. The effect of compounds on cell proliferation was evaluated using the Cell Titer Glo reagent (Promega), according to the manufacturer's instructions. Briefly, 100 μL of reagent was added per well, and after a 10 minute incubation luminescence values were determined on a plate reader (Tecan F200PRO). The percent of luminescence signal relative to untreated controls was calculated for each compound concentration, and EC50 values were determined from dose response data by non-linear regression analysis using Prism (GraphPad). The mTor inhibitor Torin1 (Liu, et al. (2010) J. Med. Chem. 53, 7146.) was used as a control. The data are summarized in the compound table provided above.
row,Compound,EC50 [µM]
1,"COC(=O)c1c(Cc2ccccc2[N+](=O)[O-])c(C)nn1-c1nc(-c2ccc(Cl)c(Cl)c2)cs1 [Compound 1, methyl 1-(4-(3,4-dichlorophenyl)thiazol-2-yl)-3-methyl-4-(2-nitrobenzyl)-1H-pyrazole-5-carboxylate]",> 50
2,"Cc1nn(-c2nc(-c3ccc(Cl)c(Cl)c3)cs2)c(C(=O)O)c1Cc1ccccc1[N+](=O)[O-] [Compound 2, 1-(4-(3,4-dichlorophenyl)thiazol-2-yl)-3-methyl-4-(2-nitrobenzyl)-1H-pyrazole-5-carboxylic acid]",> 50
3,"CCSc1sc(-n2nc(C)c(Cc3ccccc3[N+](=O)[O-])c2C(=O)OC)nc1-c1ccc(Cl)c(Cl)c1 [Compound 3, methyl 1-(4-(3,4-dichlorophenyl)-5-(ethylthio)thiazol-2-yl)-3-methyl-4-(2-nitrobenzyl)-1H-pyrazole-5-carboxylate]",> 80
4,"CCSc1sc(-n2nc(C)c(Cc3ccccc3[N+](=O)[O-])c2C(=O)O)nc1-c1ccc(Cl)c(Cl)c1 [Compound 4, 1-(4-(3,4-dichlorophenyl)-5-(ethylthio)thiazol-2-yl)-3-methyl-4-(2-nitrobenzyl)-1H-pyrazole-5-carboxylic Acid]",50 to 100
5,"COC(=O)c1c(Cc2ccccc2[N+](=O)[O-])c(C)nn1-c1nc(-c2ccc(Cl)c(Cl)c2)c(SC(C)C)s1 [Compound 5, methyl 1-(4-(3,4-dichlorophenyl)-5-(isopropylthio)thiazol-2-yl)-3-methyl-4-(2-nitrobenzyl)-1H-pyrazole-5-carboxylate]",> 80
6,"Cc1nn(-c2nc(-c3ccc(Cl)c(Cl)c3)c(SC(C)C)s2)c(C(=O)O)c1Cc1ccccc1[N+](=O)[O-] [Compound 6, 1-(4-(3,4-dichlorophenyl)-5-(isopropylthio)thiazol-2-yl)-3-methyl-4-(2-nitrobenzyl)-1H-pyrazole-5-carboxylic acid]",25 to 50
7,"COC(=O)c1c(Cc2ccccc2NS(C)(=O)=O)c(C)nn1-c1nc(-c2ccc(Cl)c(Cl)c2)cs1 [Compound 7, methyl 1-(4-(3,4-dichlorophenyl)thiazol-2-yl)-3-methyl-4-(2-(methylsulfonamido)benzyl)-1H-pyrazole-5-carboxylate]",> 80
8,"Cc1nn(-c2nc(-c3ccc(Cl)c(Cl)c3)cs2)c(C(=O)O)c1Cc1ccccc1NS(C)(=O)=O [Compound 8, 1-(4-(3,4-dichlorophenyl)thiazol-2-yl)-3-methyl-4-(2-(methylsulfonamido)benzyl)-1H-pyrazole-5-carboxylic acid]",> 80
9,"CCCSc1sc(-n2nc(C)c(Cc3ccccc3[N+](=O)[O-])c2C(=O)OC)nc1-c1ccc(Cl)c(Cl)c1 [Compound 9, methyl 1-(4-(3,4-dichlorophenyl)-5-(propylthio)thiazol-2-yl)-3-methyl-4-(2-nitrobenzyl)-1H-pyrazole-5-carboxylate]",> 80
10,"CCCSc1sc(-n2nc(C)c(Cc3ccccc3[N+](=O)[O-])c2C(=O)O)nc1-c1ccc(Cl)c(Cl)c1 [Compound 10, 1-(4-(3,4-dichlorophenyl)-5-(propylthio)thiazol-2-yl)-3-methyl-4-(2-nitrobenzyl)-1H-pyrazole-5-carboxylic acid]",25 to 50
11,"CCCCSc1sc(-n2nc(C)c(Cc3ccccc3[N+](=O)[O-])c2C(=O)OC)nc1-c1ccc(Cl)c(Cl)c1 [Compound 11, methyl 1-(5-(butylthio)-4-(3,4-dichlorophenyl)thiazol-2-yl)-3-methyl-4-(2-nitrobenzyl)-1H-pyrazole-5-carboxylate]",> 80
12,"CCCCSc1sc(-n2nc(C)c(Cc3ccccc3[N+](=O)[O-])c2C(=O)O)nc1-c1ccc(Cl)c(Cl)c1 [Compound 12, 1-(5-(butylthio)-4-(3,4-dichlorophenyl)thiazol-2-yl)-3-methyl-4-(2-nitrobenzyl)-1H-pyrazole-5-carboxylic Acid]",> 80
13,"CCCSc1sc(-n2nc(C)c(Cc3ccccc3NS(C)(=O)=O)c2C(=O)O)nc1-c1ccc(Cl)c(Cl)c1 [Compound 13, 1-(4-(3,4-dichlorophenyl)-5-(propylthio)thiazol-2-yl)-3-methyl-4-(2-(methylsulfonamido)benzyl)-1H-pyrazole-5-carboxylic Acid]",25 to 50
14,"CCCSc1sc(-n2nc(C)c(Cc3ccccc3NS(C)(=O)=O)c2C(=O)N2CCC(CN)CC2)nc1-c1ccc(Cl)c(Cl)c1 [Compound 14, N-(2-((5-(4-(aminomethyl)piperidine-1-carbonyl)-1-(4-(3,4-dichlorophenyl)-5-(propylthio)thiazol-2-yl)-3-methyl-1H-pyrazol-4-yl)methyl)phenyl)methanesulfonamide]",10 to 25
15,"Cc1nn(-c2nc(-c3ccc(Cl)c(Cl)c3)c(SC(C)C)s2)c(C(=O)O)c1Br [Compound 15, 4-bromo-1-(4-(3,4-dichlorophenyl)-5-(isopropylthio)thiazol-2-yl)-3-methyl-1H-pyrazole-5-carboxylic Acid]",10 to 25
16,"Cc1cc(C(=O)O)n(-c2nc(-c3ccc(Cl)c(Cl)c3)c(SC(C)C)s2)n1 [Compound 16, 1-(4-(3,4-dichlorophenyl)-5-(isopropylthio)thiazol-2-yl)-3-methyl-1H-pyrazole-5-carboxylic Acid]",50 to 100
17,"Cc1nn(-c2nc(-c3ccc(Cl)c(Cl)c3)c(SC(C)C)s2)c(C(=O)O)c1-c1ccc2nccn2c1 [Compound 17, 1-(4-(3,4-dichlorophenyl)-5-(isopropylthio)thiazol-2-yl)-4-(imidazo[1,2-a]pyridin-6-yl)-3-methyl-1H-pyrazole-5-carboxylic Acid]",10 to 25
18,"Cc1nn(-c2nc(-c3ccc(Cl)c(Cl)c3)c(SC(C)C)s2)c(C(=O)O)c1-c1ccccc1 [Compound 18, 1-(4-(3,4-dichlorophenyl)-5-(isopropylthio)thiazol-2-yl)-3-methyl-4-phenyl-1H-pyrazole-5-carboxylic Acid]",1 to 5
19,"Cc1nn(-c2nc(-c3ccc(Cl)c(Cl)c3)c(SC3CCCCC3)s2)c(C(=O)O)c1Cc1ccccc1[N+](=O)[O-] [Compound 19, 1-(5-(cyclohexylthio)-4-(3,4-dichlorophenyl)thiazol-2-yl)-3-methyl-4-(2-nitrobenzyl)-1H-pyrazole-5-carboxylic Acid]",10 to 25
20,"Cc1nn(-c2nc(-c3ccc(Cl)c(Cl)c3)c(SC(C)C)s2)c(C(=O)O)c1-c1cc2ccccc2o1 [Compound 20, 4-(benzofuran-2-yl)-1-(4-(3,4-dichlorophenyl)-5-(isopropylthio)thiazol-2-yl)-3-methyl-1H-pyrazole-5-carboxylic Acid]",5 to 10
21,"Cc1nn(-c2nc(-c3ccc(Cl)c(Cl)c3)c(SC(C)C)s2)c(C(=O)O)c1-c1ccnc(F)c1 [Compound 21, 1-(4-(3,4-dichlorophenyl)-5-(isopropylthio)thiazol-2-yl)-4-(2-fluoropyridin-4-yl)-3-methyl-1H-pyrazole-5-carboxylic acid]",5 to 10
22,"Cc1cc(-c2c(C)nn(-c3nc(-c4ccc(Cl)c(Cl)c4)c(SC(C)C)s3)c2C(=O)O)cc(C)n1 [Compound 23, 1-(4-(3,4-dichlorophenyl)-5-(isopropylthio)thiazol-2-yl)-4-(2,6-dimethylpyridin-4-yl)-3-methyl-1H-pyrazole-5-carboxylic Acid]",< 1
23,"Cc1nn(-c2nc(-c3ccc(Cl)c(Cl)c3)c(SC(C)C)s2)c(C(=O)O)c1-c1cc(F)cc(F)c1 [Compound 24, 1-(4-(3,4-dichlorophenyl)-5-(isopropylthio)thiazol-2-yl)-4-(3,5-difluorophenyl)-3-methyl-1H-pyrazole-5-carboxylic Acid]",1 to 5
